The test system of this experiment is MV-4-11 cells. The experiment is described as follows: Gene expression microarray analysis (Affymetrix PrimeView) and GSEA. It counts as cell-based, human. Further details: RFU PODN (11730768_x_at) / Fold change /veh PODN (11730768_x_at) / RFU LINC00158 (11744669_a_at) / Fold change /veh LINC00158 (11744669_a_at) / RFU DUSP10 (11751237_a_at) / Fold change /veh DUSP10 (11751237_a_at) / RFU ID3 (11757404_x_at) / Fold change /veh ID3 (11757404_x_at) / RFU PLEKHG5 (11737974_s_at) / Fold change /veh PLEKHG5 (11737974_s_at) / RFU LRRC4B (11730491_at) / Fold change /veh LRRC4B (11730491_at) / RFU GIMAP4 (11747438_a_at) / Fold change /veh GIMAP4 (11747438_a_at) / RFU KRT8 (11758183_x_at) / Fold change /veh KRT8 (11758183_x_at) / RFU CNN1 (11734310_a_at) / Fold change /veh CNN1 (11734310_a_at) / RFU VPS37D (11726825_at) / Fold change /veh VPS37D (11726825_at) / RFU C10orf10 (11716522_x_at) / Fold change /veh C10orf10 (11716522_x_at) / RFU KIR2DL2 /// KIR2DL4 /// KIR2DL5A /// KIR2DL5B /// KIR2DS1 /// KIR2DS2 /// KIR2DS3 /// KIR2DS4 /// KIR3DL3 /// KIR3DL3 /// KIR3DS1 (11738374_at) / Fold change /veh KIR2DL2 /// KIR2DL4 /// KIR2DL5A /// KIR2DL5B /// KIR2DS1 /// KIR2DS2 /// KIR2DS3 /// KIR2DS4 /// KIR3DL3 /// KIR3DL3 /// KIR3DS1 (11738374_at) / RFU C1QL1 (11718748_at) / Fold change /veh C1QL1 (11718748_at) / RFU TMPRSS4 (11747572_a_at) / Fold change /veh TMPRSS4 (11747572_a_at) / RFU HAMP (11756126_x_at) / Fold change /veh HAMP (11756126_x_at) / RFU RNFT2 (11725882_a_at) / Fold change /veh RNFT2 (11725882_a_at) / RFU NR4A2 (11747474_a_at) / Fold change /veh NR4A2 (11747474_a_at) / RFU ABCC12 (11746883_a_at) / Fold change /veh ABCC12 (11746883_a_at) / RFU TMEM136 (11760407_x_at) / Fold change /veh TMEM136 (11760407_x_at) / RFU CLDN22 /// WWC2 (11732394_at) / Fold change /veh CLDN22 /// WWC2 (11732394_at) / RFU HLA-DPB1 (11760878_x_at) / Fold change /veh HLA-DPB1 (11760878_x_at) / RFU SPINT1 (11716480_a_at) / Fold change /veh SPINT1 (11716480_a_at) / RFU GAP43 (11754022_s_at) / Fold change /veh GAP43 (11754022_s_at) / RFU A4GNT (11735810_at) / Fold change /veh A4GNT (11735810_at) / RFU PRB3 (11715151_x_at) / Fold change /veh PRB3 (11715151_x_at) / RFU TUBB4B (11761932_at) / Fold change /veh TUBB4B (11761932_at) / RFU CAPN14 (11732068_a_at) / Fold change /veh CAPN14 (11732068_a_at) / RFU TMCC2 (11721928_a_at) / Fold change /veh TMCC2 (11721928_a_at) / RFU IRGQ (11745062_a_at) / Fold change /veh IRGQ (11745062_a_at) / RFU FAM174B (11720279_a_at) / Fold change /veh FAM174B (11720279_a_at) / RFU TMPRSS4 (11748680_a_at) / Fold change /veh TMPRSS4 (11748680_a_at) / RFU FAM212B (11763350_a_at) / Fold change /veh FAM212B (11763350_a_at) / RFU PLEKHG5 (11743358_a_at) / Fold change /veh PLEKHG5 (11743358_a_at) / RFU ZSCAN30 (11745921_a_at) / Fold change /veh ZSCAN30 (11745921_a_at) / RFU CMKLR1 (11741424_a_at) / Fold change /veh CMKLR1 (11741424_a_at) / RFU LOC101060620 /// MAPK8IP1 (11723275_at) / Fold change /veh LOC101060620 /// MAPK8IP1 (11723275_at) / RFU SPTSSB (11747773_x_at) / Fold change /veh SPTSSB (11747773_x_at) / RFU PRSS12 (11739890_at) / Fold change /veh PRSS12 (11739890_at) / RFU BIN1 (11741810_x_at) / Fold change /veh BIN1 (11741810_x_at) / RFU WNT11 (11732464_a_at) / Fold change /veh WNT11 (11732464_a_at) / RFU C10orf10 (11716521_a_at) / Fold change /veh C10orf10 (11716521_a_at) / RFU C5orf56 (11738089_at) / Fold change /veh C5orf56 (11738089_at) / RFU CYB561 (11721691_x_at) / Fold change /veh CYB561 (11721691_x_at) / RFU ANKRD19P (11752326_a_at) / Fold change /veh ANKRD19P (11752326_a_at) / RFU OR2T12 /// OR2T33 /// OR2T8 (11738714_s_at) / Fold change /veh OR2T12 /// OR2T33 /// OR2T8 (11738714_s_at) / RFU VCAN (11748164_a_at) / Fold change /veh VCAN (11748164_a_at) / RFU JSRP1 (11732532_at) / Fold change /veh JSRP1 (11732532_at) / RFU KRTAP10-11 (11738290_x_at) / Fold change /veh KRTAP10-11 (11738290_x_at) / RFU MYO3A (11730013_a_at) / Fold change /veh MYO3A (11730013_a_at) / RFU EBF3 (11725865_a_at) / Fold change /veh EBF3 (11725865_a_at) / RFU CAMK2N1 (11719241_x_at) / Fold change /veh CAMK2N1 (11719241_x_at) / RFU C5orf56 (11738088_a_at) / Fold change /veh C5orf56 (11738088_a_at) / RFU OLFML3 (11715873_a_at) / Fold change /veh OLFML3 (11715873_a_at) / RFU LOC100653217 /// NTM (11731650_a_at) / Fold change /veh LOC100653217 /// NTM (11731650_a_at) / RFU MAPK11 (11762145_a_at) / Fold change /veh MAPK11 (11762145_a_at) / RFU FIZ1 (11724087_x_at) / Fold change /veh FIZ1 (11724087_x_at) / RFU OASL (11726364_x_at) / Fold change /veh OASL (11726364_x_at) / RFU SOX15 (11748057_x_at) / Fold change /veh SOX15 (11748057_x_at) / RFU CD79A (11719716_a_at) / Fold change /veh CD79A (11719716_a_at) / RFU HIST1H1D (11736915_at) / Fold change /veh HIST1H1D (11736915_at) / RFU CASKIN2 (11723855_a_at) / Fold change /veh CASKIN2 (11723855_a_at) / RFU LOC730098 (11760151_x_at) / Fold change /veh LOC730098 (11760151_x_at) / RFU OR4N2 (11742367_at) / Fold change /veh OR4N2 (11742367_at) / RFU PRRT2 (11749266_a_at) / Fold change /veh PRRT2 (11749266_a_at) / RFU SNX32 (11753110_a_at) / Fold change /veh SNX32 (11753110_a_at) / RFU CDHR5 (11726645_a_at) / Fold change /veh CDHR5 (11726645_a_at) / RFU RCAN1 (11760418_a_at) / Fold change /veh RCAN1 (11760418_a_at) / RFU FAM167A (11723789_a_at) / Fold change /veh FAM167A (11723789_a_at) / RFU FAM26E (11764081_at) / Fold change /veh FAM26E (11764081_at) / RFU ISYNA1 (11749810_s_at) / Fold change /veh ISYNA1 (11749810_s_at) / RFU ACY1 (11761880_at) / Fold change /veh ACY1 (11761880_at) / RFU 11764098_at / Fold change /veh 11764098_at / RFU SAMD14 (11745864_x_at) / Fold change /veh SAMD14 (11745864_x_at) / RFU NPB (11741838_a_at) / Fold change /veh NPB (11741838_a_at) / RFU TMPRSS6 (11731388_a_at) / Fold change /veh TMPRSS6 (11731388_a_at) / RFU KRTAP10-2 (11738614_at) / Fold change /veh KRTAP10-2 (11738614_at) / RFU ARHGAP8 /// PRR5-ARHGAP8 (11727945_x_at) / Fold change /veh ARHGAP8 /// PRR5-ARHGAP8 (11727945_x_at) / RFU KRTAP5-7 /// NADSYN1 (11734609_at) / Fold change /veh KRTAP5-7 /// NADSYN1 (11734609_at) / RFU RASL12 (11751679_a_at) / Fold change /veh RASL12 (11751679_a_at) / RFU CDKN2B (11736163_a_at) / Fold change /veh CDKN2B (11736163_a_at) / RFU PRF1 (11729649_at) / Fold change /veh PRF1 (11729649_at) / RFU, ZNF638 /// ZNF638-IT1 / Fold change vs veh, ZNF638 /// ZNF638-IT1 / RFU, PANK3 / Fold change vs veh, PANK3 / RFU, SH3YL1 / Fold change vs veh, SH3YL1 / RFU, ZEB2 / Fold change vs veh, ZEB2 / RFU, NRIP1 / Fold change vs veh, NRIP1 / RFU, PTTG1IP / Fold change vs veh, PTTG1IP / RFU, CAPN2 / Fold change vs veh, CAPN2 / RFU, MED14 / Fold change vs veh, MED14 / RFU, SNORA58 / Fold change vs veh, SNORA58 / RFU, C1orf63 / Fold change vs veh, C1orf63 / RFU, LRRFIP1 / Fold change vs veh, LRRFIP1 / RFU, NDUFAF7 / Fold change vs veh, NDUFAF7 / RFU, SLC12A2 / Fold change vs veh, SLC12A2 / RFU, IBTK / Fold change vs veh, IBTK / RFU, ESF1 / Fold change vs veh, ESF1 / Fold change vs veh, TMEM50B / RFU, TAOK1 / Fold change vs veh, TAOK1 / RFU, ACBD3 / Fold change vs veh, ACBD3 / RFU, TMA16 / Fold change vs veh, TMA16 / RFU, RWDD3 / Fold change vs veh, RWDD3 / RFU, BCAT1 / Fold change vs veh, BCAT1 / RFU, EDEM3 / Fold change vs veh, EDEM3 / RFU, TMEM33 / Fold change vs veh, TMEM33 / RFU, WDR75 / Fold change vs veh, WDR75 / RFU, AHCTF1 / Fold change vs veh, AHCTF1 / RFU, TFRC / Fold change vs veh, TFRC / RFU, ZDHHC17 / Fold change vs veh, ZDHHC17 / RFU, NOM1 / Fold change vs veh, NOM1 / RFU, ARL8B / Fold change vs veh, ARL8B / RFU, ZBTB11 / Fold change vs veh, ZBTB11 / RFU, TAMM41 / Fold change vs veh, TAMM41 / RFU, KIAA1704 /// LOC100996395 / Fold change vs veh, KIAA1704 /// LOC100996395 / RFU, ING1 / Fold change vs veh, ING1 / RFU, TRMT61B / Fold change vs veh, TRMT61B / RFU, FUBP3 / Fold change vs veh, FUBP3 / RFU, TP53 / Fold change vs veh, TP53 / RFU, TNKS2 / Fold change vs veh, TNKS2 / RFU, ZFP14 / Fold change vs veh, ZFP14 / RFU, ACTR2 / Fold change vs veh, ACTR2 / RFU, PPP3R1 / Fold change vs veh, PPP3R1 / RFU, PIK3R1 / Fold change vs veh, PIK3R1 / RFU, HNRNPA1 / Fold change vs veh, HNRNPA1 / RFU, RNF170 / Fold change vs veh, RNF170 / RFU, ZNF28 / Fold change vs veh, ZNF28 / RFU, RNGTT / Fold change vs veh, RNGTT / RFU, OGT / Fold change vs veh, OGT / RFU, BRD1 / Fold change vs veh, BRD1 / RFU, MARS / Fold change vs veh, MARS / RFU, ZNF655 / Fold change vs veh, ZNF655 / RFU, FAHD1 / Fold change vs veh, FAHD1 / RFU, BDP1 / Fold change vs veh, BDP1 / RFU, LRRCC1 / Fold change vs veh, LRRCC1 / RFU, ARID1A / Fold change vs veh, ARID1A / RFU, ZNF146 / Fold change vs veh, ZNF146 / RFU, ZNF330 / Fold change vs veh, ZNF330 / RFU, GPN3 / Fold change vs veh, GPN3 / RFU, C9orf123 / Fold change vs veh, C9orf123 / RFU, N4BP2L2 / Fold change vs veh, N4BP2L2 / RFU, ARFIP1 / Fold change vs veh, ARFIP1 / RFU, FAM179B / Fold change vs veh, FAM179B / RFU, BCL10 / Fold change vs veh, BCL10 / RFU, UHRF1BP1L / Fold change vs veh, UHRF1BP1L / RFU, BET1 / Fold change vs veh, BET1 / RFU, CNOT2 / Fold change vs veh, CNOT2 / RFU, ZNF268 / Fold change vs veh, ZNF268 / Fold change vs veh, ZNF507 / RFU, DGCR2 / Fold change vs veh, DGCR2 / RFU, WDSUB1 / Fold change vs veh, WDSUB1 / Fold change vs veh, HSP90B1 /// MIR3652 / RFU, ADSS / Fold change vs veh, ADSS / RFU, GK / Fold change vs veh, GK / RFU, ZNF148 / Fold change vs veh, ZNF148 / RFU, TAF9 / Fold change vs veh, TAF9 / RFU, SLC1A5 / Fold change vs veh, SLC1A5 / RFU, SLMO2 / Fold change vs veh, SLMO2 / RFU, ABCC4 / Fold change vs veh, ABCC4 / RFU, LOC101060439 /// RAP1B / Fold change vs veh, LOC101060439 /// RAP1B / RFU, RFX7 / Fold change vs veh, RFX7 / RFU, GTPBP10 / Fold change vs veh, GTPBP10 / RFU, CNEP1R1 / Fold change vs veh, CNEP1R1 / RFU, BIVM-ERCC5 /// ERCC5 / Fold change vs veh, BIVM-ERCC5 /// ERCC5 / RFU, ILF3 / Fold change vs veh, ILF3 / RFU 11762660_at / Fold change /veh 11762660_at / RFU VCAN (11757783_s_at) / Fold change /veh VCAN (11757783_s_at) / RFU DDX43 (11728927_at) / Fold change /veh DDX43 (11728927_at) / RFU KRT8 (11758188_x_at) / Fold change /veh KRT8 (11758188_x_at) / RFU NKD1 (11759106_at) / Fold change /veh NKD1 (11759106_at) / RFU SRD5A1 (11742802_a_at) / Fold change /veh SRD5A1 (11742802_a_at) / RFU TPSAB1 /// TPSB2 (11721975_s_at) / Fold change /veh TPSAB1 /// TPSB2 (11721975_s_at) / RFU GSTM3 (11746129_a_at) / Fold change /veh GSTM3 (11746129_a_at) / RFU IL23R (11737362_x_at) / Fold change /veh IL23R (11737362_x_at) / RFU TMEM51 (11727254_a_at) / Fold change /veh TMEM51 (11727254_a_at) / RFU PIWIL2 (11732686_x_at) / Fold change /veh PIWIL2 (11732686_x_at) / RFU ORM1 (11744905_x_at) / Fold change /veh ORM1 (11744905_x_at) / RFU CCDC152 (11743942_at) / Fold change /veh CCDC152 (11743942_at) / RFU ECM1 (11717891_a_at) / Fold change /veh ECM1 (11717891_a_at) / RFU IL23R (11748794_a_at) / Fold change /veh IL23R (11748794_a_at) / RFU TNFAIP8L3 (11732012_x_at) / Fold change /veh TNFAIP8L3 (11732012_x_at) / RFU MBOAT4 (11741988_at) / Fold change /veh MBOAT4 (11741988_at) / RFU 11764193_at / Fold change /veh 11764193_at / RFU TMEM53 (11763286_at) / Fold change /veh TMEM53 (11763286_at) / RFU MAGEB2 (11727129_at) / Fold change /veh MAGEB2 (11727129_at) / RFU TMEM200A (11744735_a_at) / Fold change /veh TMEM200A (11744735_a_at) / RFU CCDC152 (11751479_a_at) / Fold change /veh CCDC152 (11751479_a_at) / RFU FAM211A (11726209_a_at) / Fold change /veh FAM211A (11726209_a_at) / RFU RGS16 (11746705_a_at) / Fold change /veh RGS16 (11746705_a_at) / RFU VCAN (11755009_s_at) / Fold change /veh VCAN (11755009_s_at) / RFU RHOB (11743442_s_at) / Fold change /veh RHOB (11743442_s_at) / RFU RGS16 (11720943_a_at) / Fold change /veh RGS16 (11720943_a_at) / RFU RGS16 (11720944_at) / Fold change /veh RGS16 (11720944_at) / RFU, VPS4B / Fold change vs veh, VPS4B / RFU, CREB1 / Fold change vs veh, CREB1 / RFU, DNAJC13 / Fold change vs veh, DNAJC13 / RFU, GNAQ / Fold change vs veh, GNAQ / RFU, CDK5R1 / Fold change vs veh, CDK5R1 / RFU, ZRANB3 / Fold change vs veh, ZRANB3 / RFU, CUL4A / Fold change vs veh, CUL4A / RFU, CCNY / Fold change vs veh, CCNY / RFU, UFL1 / Fold change vs veh, UFL1 / RFU, COG3 / Fold change vs veh, COG3 / RFU, DIAPH2 / Fold change vs veh, DIAPH2 / RFU, SKA2 / Fold change vs veh, SKA2 / RFU, AFF3 / Fold change vs veh, AFF3 / RFU, LMF1 / Fold change vs veh, LMF1 / RFU, IPO11 / Fold change vs veh, IPO11 / RFU, DFFB / Fold change vs veh, DFFB / RFU, FOXP1 / Fold change vs veh, FOXP1 / RFU, CARD8 / Fold change vs veh, CARD8 / RFU, STRN3 / Fold change vs veh, STRN3 / RFU, ADK / Fold change vs veh, ADK / RFU, RASSF2 / Fold change vs veh, RASSF2 / RFU, WIPF1 / Fold change vs veh, WIPF1 / RFU, LARP1B / Fold change vs veh, LARP1B / RFU, RASA1 / Fold change vs veh, RASA1 / RFU, RB1 / Fold change vs veh, RB1 / RFU, PPFIA1 / Fold change vs veh, PPFIA1 / RFU, MAT2A / Fold change vs veh, MAT2A / RFU, CCT5 / Fold change vs veh, CCT5 / RFU, WDR92 / Fold change vs veh, WDR92 / RFU, CUX1 / Fold change vs veh, CUX1 / RFU, TTC7A / Fold change vs veh, TTC7A / RFU, TMEM135 / Fold change vs veh, TMEM135 / RFU, DEPTOR / Fold change vs veh, DEPTOR / RFU, CPM / Fold change vs veh, CPM / RFU, DNAJB6 / Fold change vs veh, DNAJB6 / RFU, CACNA2D3 / Fold change vs veh, CACNA2D3 / RFU, DTX4 / Fold change vs veh, DTX4 / RFU, TFCP2 / Fold change vs veh, TFCP2 / RFU, GMCL1 /// GMCL1P1 / Fold change vs veh, GMCL1 /// GMCL1P1 / RFU, AEBP2 / Fold change vs veh, AEBP2 / RFU, SNHG1 /// SNORD22 /// SNORD25 /// SNORD26 /// SNORD27 /// SNORD28 /// SNORD29 /// SNORD31 / Fold change vs veh, SNHG1 /// SNORD22 /// SNORD25 /// SNORD26 /// SNORD27 /// SNORD28 /// SNORD29 /// SNORD31 / Fold change (Aza/veh), C12orf56 (ProbeSet 11735607_a_at) / Fold change (ACY-1035/veh), C12orf56 (ProbeSet 11735607_a_at) / Fold change (Aza/veh), FGFR1OP (ProbeSet 11751329_s_at) / Fold change (ACY-1035/veh), FGFR1OP (ProbeSet 11751329_s_at) / Fold change (Aza/veh), VPS36 (ProbeSet 11739960_a_at) / Fold change (ACY-1035/veh), VPS36 (ProbeSet 11739960_a_at) / RFU SYPL1 (11715823_x_at) / Fold change /veh SYPL1 (11715823_x_at) / RFU IGFBP7 (11715501_s_at) / Fold change /veh IGFBP7 (11715501_s_at) / RFU REEP3 (11722064_at) / Fold change /veh REEP3 (11722064_at) / RFU IGLL1 (11728026_x_at) / Fold change /veh IGLL1 (11728026_x_at): dose or concentration left out as unconfirmed. To be noted: MV-4-11 cells, 48 hours.

This is an account of results in article PMC5218480 (PLoS ONE, 2017).

In the case of `Nc1ccc(-c2cccs2)cc1NC(=O)c1ccc2c(c1)cc(C1CC1)n2CCN1CCOCC1` [ACY-1035], the “RFU TMEM51 (11727254_a_at)” value stood at 14.11 RFU.
